Measured values taken from patent US9416129B2, “Tricyclic substituted thiadiazine dioxide compounds as BACE inhibitors, compositions and their use” (Merck Sharp & Dohme Corp., priority 2012, dated 2016).
pKi: −log10 of the molar value.

Legend:
[1] = molecular target: soluble human BACE1 catalytic domain (Homo sapiens (Human), UniProt P56817); assay: BACE1 HTRF FRET assay; type: biochemical; conditions: Ki calculated from IC50 using the Cheng-Prusoff equation
From the text: Na^+-Acetate pH 5.0; 1% Brij-35; Glycerol; Dimethyl Sulfoxide (DMSO); Recombinant human soluble BACE1 catalytic domain (>95% pure); APP Swedish mutant peptide substrate (QSY7-APP^swe-Eu): QSY7-[…]-Europium-amide.
A homogeneous time-resolved FRET assay can be used to determine IC50 values for inhibitors of the soluble human BACE1 catalytic domain. This assay monitors the increase of 620 nm fluorescence that resulted from BACE1 cleavage of an APPswedish APP^swe mutant peptide FRET substrate (QSY7-[…]-Europium-amide). This substrate contains an N-terminal QSY7 moiety that serves as a quencher of the C-terminal Europium fluorophore (620 nm Em). In the absence of enzyme activity, 620 nm fluorescence is low in the assay and increased linearly over 3 hours in the presence of uninhibited BACE1 enzyme Inhibition of BACE1 cleavage of the QSY7-APP^swe-Eu substrate by inhibitors is manifested as a suppression of 620 nm fluorescence.
Varying concentrations of inhibitors at 3× the final desired concentration in a volume of 10 ul are preincubated with purified human BACE1 catalytic domain (3 nM in 10 μl) for 30 minutes at 30° C. in reaction buffer containing 20 mM Na-Acetate pH 5.0, 10% glycerol, 0.1% Brij-35 and 7.5% DSMO. Reactions are initiated by addition of 10 μl of 600 nM QSY7-APP^swe-Eu substrate (200 nM final) to give a final reaction volume of […] in a 384 well Nunc HTRF plate. The reactions are incubated at 30° C. for 1.5 hours. The 620 nm fluorescence is then read on a Rubystar HTRF plate reader (BMG Labtechnologies) using a 50 millisecond delay followed by a 400 millisecond acquisition time window. Inhibitor IC50 values are derived from non-linear regression analysis of concentration response curves.

human autoBACE-2 = human autoBACE-2 (Homo sapiens (Human), UniProt Q9Y5Z0); assay: BACE-2 assay (BACE-HTRF, time-resolved endpoint proteolysis); type: biochemical; conditions: Ki calculated from IC50 using the Cheng-Prusoff equation; read-out: BACE2 Ki
human autoBACE-2, sequence (Q9Y5Z0 63-473 limits assumed): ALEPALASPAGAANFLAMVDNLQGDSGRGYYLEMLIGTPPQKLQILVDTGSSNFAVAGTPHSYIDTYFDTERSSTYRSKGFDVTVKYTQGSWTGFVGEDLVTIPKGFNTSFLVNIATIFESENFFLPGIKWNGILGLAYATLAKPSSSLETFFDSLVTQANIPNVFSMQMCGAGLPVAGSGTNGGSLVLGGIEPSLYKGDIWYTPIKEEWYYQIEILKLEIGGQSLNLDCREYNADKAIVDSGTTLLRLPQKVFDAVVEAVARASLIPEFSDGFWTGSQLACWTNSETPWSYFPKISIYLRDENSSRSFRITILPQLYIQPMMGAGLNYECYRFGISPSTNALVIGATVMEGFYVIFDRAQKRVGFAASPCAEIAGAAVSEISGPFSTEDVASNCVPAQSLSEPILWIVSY
Method: Inhibitor IC50s at purified human autoBACE-2 are determined in a time-resolved endpoint proteolysis assay that measures hydrolysis of the QSY7-[…]-Eu-amide FRET peptide substrate (BACE-HTRF assay). […] DMSO is present at 5% final concentration in the assay. Following laser excitation of sample wells at 320 nm, the fluorescence signal at 620 nm is collected for 400 ms following a 50 μs delay on a RUBYstar HTRF plate reader (BMG Labtechnologies). Raw RFU data is normalized to maximum (1.0 nM BACE/DMSO) and minimum (no enzyme/DMSO) RFU values. […] The Ki values are calculated from the IC50 using the Cheng-Prusoff equation.

soluble human BACE1 catalytic domain, sequence (P56817 75-416): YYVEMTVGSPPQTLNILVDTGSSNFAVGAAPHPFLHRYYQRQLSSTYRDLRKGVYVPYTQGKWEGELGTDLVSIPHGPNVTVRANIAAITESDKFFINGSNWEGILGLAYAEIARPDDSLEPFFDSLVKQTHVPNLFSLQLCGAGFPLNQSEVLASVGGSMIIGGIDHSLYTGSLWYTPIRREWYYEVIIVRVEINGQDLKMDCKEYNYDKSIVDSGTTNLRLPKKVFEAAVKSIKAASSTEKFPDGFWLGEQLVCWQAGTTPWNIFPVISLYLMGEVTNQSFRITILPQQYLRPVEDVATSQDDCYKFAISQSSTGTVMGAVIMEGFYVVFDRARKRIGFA

Row | pKi [1] | pKi (human autoBACE-2) | Compound
1 | 8.80 | 8.22 | CN1C(=N)N[C@](C)(c2sc(-c3cccc(-c4nnco4)c3)cc2Cl)CS1(=O)=O [Example 1]
2 | 8.77 | 7.86 | CN1C(=N)N[C@](C)(c2sc(-c3cccc(-c4nnco4)c3)cc2F)CS1(=O)=O [Example 2]
3 | 8.12 | 7.59 | CN1C(=N)N[C@](C)(c2sc(-c3cncc(-c4nnco4)c3)cc2F)CS1(=O)=O [Example 3]
4 | 7.97 | 9.46 | CN1C(=N)N[C@](C)(c2sc(-c3cccc(-c4cc[nH]n4)c3)cc2F)CS1(=O)=O [Example 4]
5 | 8.16 | 9.51 | CN1C(=N)N[C@](C)(c2sc(-c3cncc(-c4ncco4)c3)cc2Cl)CS1(=O)=O [Example 9]
6 | 7.80 | 9.00 | CN1C(=N)N[C@](C)(c2sc(-c3cncc(-c4ncco4)c3)cc2F)CS1(=O)=O [Example 10]
7 | 8.19 | 8.62 | CN1C(=N)N[C@](C)(c2sc(-c3cccc(-c4ccno4)c3)cc2Cl)CS1(=O)=O [Example 13]
8 |  | 8.42 | Cc1nnc(-c2cccc(-c3cc(Cl)c([C@]4(C)CS(=O)(=O)N(C)C(=N)N4)s3)c2)o1 [Example 15]
9 | 6.63 | 8.38 | Cc1nnc(-c2cccc(-c3cc(F)c([C@]4(C)CS(=O)(=O)N(C)C(=N)N4)s3)c2)o1 [Example 16]
10 | 7.72 | 7.28 | CN1C(=N)N[C@](C)(c2cc(-c3cccc(-c4nnco4)c3)cs2)CS1(=O)=O [Example 19]
11 | 7.92 | 8.05 | CN1C(=N)N[C@](C)(c2sc(-c3cncc(-c4cnco4)c3)cc2Cl)CS1(=O)=O [Example 20]
12 | 7.74 | 7.80 | CN1C(=N)N[C@](C)(c2sc(-c3cncc(-c4cnco4)c3)cc2F)CS1(=O)=O [Example 21]
13 | 7.07 | 7.01 | CN1C(=N)N[C@](C)(c2cc(-c3cncc(-c4cnco4)c3)cs2)CS1(=O)=O [Example 22]
14 | 7.09 | 7.74 | CN1C(=N)N[C@](C)(c2cc(-c3cc(F)cc(-c4cnco4)c3)cs2)CS1(=O)=O [Example 24]
15 | 7.36 | 8.24 | CN1C(=N)N[C@](C)(c2ncc(-c3cccc(-c4ncco4)c3)s2)CS1(=O)=O [Example 26]
16 | 7.86 | 6.82 | CN1C(=N)N[C@](C)(c2ncc(-c3cccc(-c4nnco4)c3)s2)CS1(=O)=O [Example 27]
17 | 9.30 | 9.55 | CN1C(=N)N[C@](C)(c2sc(-c3cc(F)cc(-c4nnco4)c3)cc2Cl)CS1(=O)=O [Example 28]
18 | 8.92 | 8.89 | CN1C(=N)N[C@](C)(c2sc(-c3cc(F)cc(-c4nnco4)c3)cc2F)CS1(=O)=O [Example 29]
19 | 6.06 | 6.63 | CN1C(=N)N[C@](C)(c2cc(-c3cc(F)cc(-c4nnco4)c3)ccc2F)CS1(=O)=O [Example 30]
20 | 8.77 | 8.38 | CN1C(=N)N[C@](C)(c2sc(-c3cc(-c4nnco4)ccc3F)cc2Cl)CS1(=O)=O [Example 31]
21 | 8.26 | 8.00 | CN1C(=N)N[C@](C)(c2sc(-c3ccc(F)c(-c4nnco4)c3)cc2Cl)CS1(=O)=O [Example 33]
22 | 8.17 | 7.96 | CN1C(=N)N[C@](C)(c2sc(-c3ccc(F)c(-c4nnco4)c3)cc2F)CS1(=O)=O [Example 34]
23 | 7.22 | 7.52 | CN1C(=N)N[C@](C)(c2sc(-c3cccc(-c4nnco4)c3F)cc2Cl)CS1(=O)=O [Example 35]
24 | 5.94 | 6.61 | CN1C(=N)N[C@](C)(c2sc(-c3cccc(-c4nnco4)c3F)cc2F)CS1(=O)=O [Example 36]
25 | 7.59 | 8.34 | Cc1noc(-c2cccc(-c3cc(Cl)c([C@]4(C)CS(=O)(=O)N(C)C(=N)N4)s3)c2)n1 [Example 37]
26 | 6.38 | 8.00 | CN1C(=N)N[C@](C)(c2sc(-c3cccc(-c4nc(C5CC5)no4)c3)cc2Cl)CS1(=O)=O [Example 39]
27 | 6.21 | 8.02 | CN1C(=N)N[C@](C)(c2sc(-c3cccc(-c4nc(C5CC5)no4)c3)cc2F)CS1(=O)=O [Example 40]

Row | pKi [1] | pKi (human autoBACE-2) | Compound
28 | 8.06 | 8.19 | CN1C(=N)N[C@](C)(c2cc(-c3cc(F)cc(-c4nnco4)c3)cs2)CS1(=O)=O [Example 43]
29 | 6.49 | 8.52 | CN1C(=N)N[C@](C)(c2sc(-c3cccc(-c4noc(C5CC5)n4)c3)cc2F)CS1(=O)=O [Example 45]
30 | 9.06 | 9.20 | CN1C(=N)N[C@](C)(c2sc(-c3cccc(-c4ncno4)c3)cc2F)CS1(=O)=O [Example 48]
31 | 7.73 | 8.96 | Cc1noc(-c2cc(-c3cc(Cl)c([C@]4(C)CS(=O)(=O)N(C)C(=N)N4)s3)ccn2)n1 [Example 49]
32 | 7.25 | 8.64 | Cc1noc(-c2cc(-c3cc(F)c([C@]4(C)CS(=O)(=O)N(C)C(=N)N4)s3)ccn2)n1 [Example 50]
33 | 6.90 | 8.60 | CN1C(=N)N[C@](C)(c2sc(-c3ccnc(-c4nc(C5CC5)no4)c3)cc2Cl)CS1(=O)=O [Example 51]
34 | 6.30 | 7.77 | CN1C(=N)N[C@](C)(c2sc(-c3ccnc(-c4nc(C5CC5)no4)c3)cc2F)CS1(=O)=O [Example 52]
35 | 6.89 |  | Cc1nnc(-c2cccc(-c3cc(Cl)c([C@]4(C)CS(=O)(=O)N(C)C(=N)N4)s3)c2)o1 [Example 53]
36 | 6.88 | 7.92 | CN1C(=N)N[C@](C)(c2sc(-c3ccnc(-c4ccccc4)c3)cc2F)CS1(=O)=O [Example 54]
37 | 5.90 | 6.67 | CN1C(=N)N[C@](C)(c2sc(-c3ccnc(-c4cncnc4)c3)cc2F)CS1(=O)=O [Example 55]
38 | 7.63 | 7.70 | CN1C(=N)N[C@](C)(c2sc(-c3ccnc(-c4cnco4)c3)cc2F)CS1(=O)=O [Example 56]
39 | 6.25 | 7.36 | CN1C(=N)N[C@](C)(c2sc(-c3cncc(-c4nnc(C5CC5)o4)c3)cc2Cl)CS1(=O)=O [Example 57]
40 | 7.17 | 7.18 | CN1C(=N)N[C@](C)(c2sc(-c3cc(-c4nnco4)ncc3F)cc2Cl)CS1(=O)=O [Example 58]
41 | 6.97 | 7.04 | CN1C(=N)N[C@](C)(c2sc(-c3cc(-c4nnco4)ncc3F)cc2F)CS1(=O)=O [Example 59]
42 | 7.24 | 8.80 | CN1C(=N)N[C@](C)(c2sc(-c3cccc(-n4cccn4)c3)cc2Cl)CS1(=O)=O [Example 60]
43 | 6.16 | 7.38 | CN1C(=N)N[C@](C)(c2sc(-c3cccc(N4CCS(=O)(=O)CC4)c3)cc2Cl)CS1(=O)=O [Example 61]
44 | 6.79 | 8.80 | CN1C(=N)N[C@](C)(c2sc(-c3cccc(-c4ccccc4)c3)cc2Cl)CS1(=O)=O [Example 62]
45 | 7.52 | 8.33 | CN1C(=N)N[C@](C)(c2sc(-c3cccc(-n4nccn4)c3)cc2Cl)CS1(=O)=O [Example 63]
46 | 5.68 | 5.98 | CN1C(=N)N[C@](C)(c2sc(-c3ccc(-c4cccnc4)cc3)cc2Cl)CS1(=O)=O [Example 64]
47 | 5.45 | 5.79 | CN1C(=N)N[C@](C)(c2sc(-c3ccc(-c4ccccn4)cc3)cc2Cl)CS1(=O)=O [Example 65]
48 | 5.23 | 5.74 | CN1C(=N)N[C@](C)(c2sc(-c3ccc(N4CCOCC4)nc3)cc2Cl)CS1(=O)=O [Example 66]
49 | 5.64 | 6.26 | CN1C(=N)N[C@](C)(c2sc(-c3ccc(-n4nccn4)cc3)cc2Cl)CS1(=O)=O [Example 67]
50 | 6.37 | 7.11 | CN1C(=N)N[C@](C)(c2sc(-c3cccc(-n4ccnc4)n3)cc2Cl)CS1(=O)=O [Example 68]
51 | 5.37 | 6.47 | CN1C(=N)N[C@](C)(c2sc(-c3ccc(-c4ncco4)cc3)cc2Cl)CS1(=O)=O [Example 69]
52 | 6.08 | 6.76 | CN1C(=N)N[C@](C)(c2sc(-c3ccc(-c4nccs4)cc3)cc2Cl)CS1(=O)=O [Example 70]
53 |  | 7.02 | Cc1nonc1N1CCN(c2nccc3c(Cl)c([C@]4(C)CS(=O)(=O)N(C)C(=N)N4)sc23)CC1 [Example 120]

Row | Compound | pKi [1] | pKi (human autoBACE-2)
54 | CN1C(=N)N[C@](C)(c2sc(-c3cc(-c4nnco4)ccc3F)cc2F)CS1(=O)=O [Example 32] | 8.96 | 8.41
